From patent US9770026B2, “Substituted pyrimidine compound and uses thereof” (Shenyang Sinochem Agrochemicals R&D Co., Ltd., priority 2012, dated 2017)

Columns and labels:
cucumber downy mildew = assay: protectant activity in vivo against cucumber downy mildew; conditions: Cucumis sativus, 168 h; for pest or weed control at 400 µg/mL: read-out: control effect against cucumber downy mildew (%), 400 mg/L; for pest or weed control at 400 µg/mL / pest or weed control at 25 µg/mL / pest or weed control at 50 µg/mL / pest or weed control at 100 µg/mL: protectant activity; for pest or weed control at 25 µg/mL: read-out: control effect against cucumber downy mildew (%), 25 mg/L; for pest or weed control at 50 µg/mL: read-out: control effect against cucumber downy mildew (%), 50 mg/L; for pest or weed control at 100 µg/mL: read-out: control effect against cucumber downy mildew (%), 100 mg/L
corn rust = assay: protectant activity in vivo against corn rust; conditions: Zea mays, 168 h; for pest or weed control at 400 µg/mL: read-out: control effect against corn rust (%), 400 mg/L; for pest or weed control at 6.25 µg/mL: read-out: control effect against corn rust (%), 6.25 mg/L; for pest or weed control at 25 µg/mL: read-out: control effect against corn rust (%), 25 mg/L; for pest or weed control at 100 µg/mL: read-out: control effect against corn rust (%), 100 mg/L
carmine spider mite = assay: bioactivity test against carmine spider mite, airbrush spray; format: in vivo; conditions: Tetranychus cinnabarinus, 72 h; for pest or weed control at 600 µg/mL: 600 mg/L; for pest or weed control at 600 µg/mL / pest or weed control at 10 µg/mL / pest or weed control at 100 µg/mL: contrastive test, read-out: Insecticidal activity against carmine spider mite (% ); for pest or weed control at 10 µg/mL: 10 mg/L; for pest or weed control at 100 µg/mL: 100 mg/L
How it was run: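 Broadbean seedlings infested with adult mites were sprayed with compound (acetone/methanol stock diluted in 0.1% Tween 80 water) by airbrush at 0.7 kg/cm^2, 0.5 ml. Three replicates were run. Mortality was scored after 72 hrs.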

cucumber gray mold = assay: fungicidal activity in vitro (inhibition rate) against cucumber gray mold; format: cell-based; conditions: 25 ppm, in vitro; read-out: inhibition rate against cucumber gray mold
Diamond back moth = assay: insecticidal activity against diamond back moth, airbrush spray; format: in vivo; conditions: 72 h; for pest or weed control at 600 µg/mL: 600 mg/L
How it was run: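 Airbrush leaf-disc spray test: both faces of 2 cm cabbage discs received 0.5 ml of test solution at 0.7 kg/cm^2. Solutions were made in acetone:methanol (1:1) and brought to concentration with 0.1% Tween 80 in water. Ten second-instar larvae per disc, triplicates, were held at 25° C and 60˜70% R.H., with mortality recorded at 72 hrs.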

[1] = tested on: Green peach aphids (Myzus Persicae Sulzer); assay: bioactivity test against green peach aphid, airbrush foliar spray; format: in vivo; conditions: Myzus persicae, foliar, 48 h; for pest or weed control at 600 µg/mL: 600 mg/L; for pest or weed control at 600 µg/mL / pest or weed control at 10 µg/mL / pest or weed control at 100 µg/mL: contrastive test, read-out: Insecticidal activity against peach aphid (%); for pest or weed control at 10 µg/mL: 10 mg/L; for pest or weed control at 100 µg/mL: 100 mg/L
How it was run: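 Aphids (15-30 per cabbage leaf disc) on moist filter paper were airbrush-sprayed at 10 psi, 0.5 mL, with compound from acetone:methanol (1:1) diluted in water with 0.1% tween 80. Held at 25±1 C, 60±5% RH; survivors counted after 48 hrs to give death rates.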

wheat powdery mildew = assay: protectant activity in vivo against wheat powdery mildew; conditions: Triticum aestivum, 168 h; for pest or weed control at 400 µg/mL: read-out: control effect against wheat powdery mildew (%), 400 mg/L; for pest or weed control at 6.25 µg/mL: read-out: control effect against wheat powdery mildew (%), 6.25 mg/L; for pest or weed control at 25 µg/mL: read-out: control effect against wheat powdery mildew (%), 25 mg/L; for pest or weed control at 100 µg/mL: read-out: control effect against wheat powdery mildew (%), 100 mg/L
armyworm = assay: bioactivity test against armyworm, airbrush spray; format: in vivo; conditions: 72 h; for pest or weed control at 600 µg/mL: 600 mg/L, read-out: Insecticidal activity against armyworm (%)

Structure (SMILES) | pest or weed control at 400 µg/mL (cucumber downy mildew) [%] | pest or weed control at 400 µg/mL (corn rust; protectant activity) [%] | pest or weed control at 600 µg/mL (carmine spider mite) [%] | inhibition at 25 ppm (cucumber gray mold) [%] | pest or weed control at 600 µg/mL (Diamond back moth) [%] | pest or weed control at 600 µg/mL [1] [%] | pest or weed control at 400 µg/mL (wheat powdery mildew; protectant activity) [%] | pest or weed control at 600 µg/mL (armyworm) [%] | pest or weed control at 6.25 µg/mL (corn rust; protectant activity) [%] | pest or weed control at 25 µg/mL (corn rust; protectant activity) [%] | pest or weed control at 100 µg/mL (corn rust; protectant activity) [%] | pest or weed control at 6.25 µg/mL (wheat powdery mildew; protectant activity) [%] | pest or weed control at 25 µg/mL (wheat powdery mildew; protectant activity) [%] | pest or weed control at 100 µg/mL (wheat powdery mildew; protectant activity) [%] | pest or weed control at 10 µg/mL [1] [%] | also measured
COC(=O)c1ccc(Oc2ccc(CCNc3nc(Cl)ncc3Cl)cc2)nc1 [CK78, reference compound] | 0 | 0 | 17 | 0 | 0 | 0 | 0 | 0 | – | – | – | – | – | – | – | –
FC(F)(F)c1cccnc1Oc1ccc(CCNc2nc(Cl)ncc2Cl)cc1 [CK81, reference compound] | – | 80 | 0 | 0 | 0 | 75 | 40 | 14 | – | – | – | – | – | – | – | –
COC(=O)c1ccc(Oc2ccc(CCNc3cc(Cl)ncn3)cc2)nc1 [CK77, reference compound] | 0 | 100 | 56 | 0 | 0 | 72 | 100 | 0 | 0 | 40 | 60 | 70 | 80 | 100 | – | –
Cc1ncnc(NCc2ccc(Oc3ccc(C(F)(F)F)cc3)cc2)c1Cl [CK53, reference compound] | 100 | 0 | 100 | 0 | 0 | 84 | 100 | 0 | – | – | – | 0 | 0 | 80 | 34 | pest or weed control at 25 µg/mL (cucumber downy mildew): 60%; pest or weed control at 50 µg/mL (cucumber downy mildew): 85%; pest or weed control at 100 µg/mL (cucumber downy mildew): 90%; pest or weed control at 10 µg/mL (carmine spider mite): 12%; pest or weed control at 100 µg/mL (carmine spider mite): 100%; pest or weed control at 100 µg/mL [1]: 66%
CCc1ncnc(NC(=O)Cc2ccc(Oc3ccc(C(F)(F)F)cc3Cl)cc2)c1Cl [CK57, reference compound] | 50 | 0 | 33 | < 50 | 0 | 61 | 0 | 0 | – | – | – | – | – | – | – | –
FC(F)(F)c1cccnc1Oc1ccc(CCNc2cc(Cl)nc(Cl)n2)cc1 [CK82, reference compound] | – | 100 | 23 | 0 | 17 | 86 | 100 | 0 | 0 | 0 | 30 | 0 | 0 | 80 | 0 | –
CCOC(=O)c1ccc(Oc2ccc(CCNc3nc(Cl)ncc3Cl)cc2)nc1 [CK75, reference compound] | 60 | 0 | 0 | 0 | 0 | 100 | 0 | 0 | – | – | – | – | – | – | 0 | pest or weed control at 100 µg/mL [1]: 0%
CCc1ncnc(OCc2ccc(Oc3ccc(Cl)cc3)nc2)c1Cl [CK25, reference compound] | 100 | 0 | 0 | < 50 | 0 | 0 | 0 | 0 | – | – | – | – | – | – | – | pest or weed control at 25 µg/mL (cucumber downy mildew): 0%; pest or weed control at 50 µg/mL (cucumber downy mildew): 0%; pest or weed control at 100 µg/mL (cucumber downy mildew): 0%
CCc1ncnc(NCCc2ccc(Oc3cc(Cl)cc(Cl)c3)cc2)c1Cl [II-303] | – | 100 | – | 100 | – | – | 100 | – | 100 | 100 | 100 | 90 | 100 | 100 | – | pest or weed control at 100 ppm (cucumber downy mildew; read-out: protectant activity against cucumber downy mildew in vivo, 100 ppm): 80 to 99%; pest or weed control at 400 ppm (cucumber downy mildew; read-out: protectant activity against cucumber downy mildew in vivo, 400 ppm): 100%; pest or weed control at 0.4 µg/mL (corn rust; read-out: control effect against corn rust (%), 0.4 mg/L, protectant activity): 50%; pest or weed control at 1.6 µg/mL (corn rust; read-out: control effect against corn rust (%), 1.6 mg/L, protectant activity): 80%; pest or weed control at 6.25 ppm (corn rust; read-out: protectant activity against corn rust in vivo, 6.25 ppm): 100%; pest or weed control at 25 ppm (corn rust; read-out: protectant activity against corn rust in vivo, 25 ppm): 100%; pest or weed control at 100 ppm (corn rust; read-out: protectant activity against corn rust in vivo, 100 ppm): 100%; pest or weed control at 400 ppm (corn rust; read-out: protectant activity against corn rust in vivo, 400 ppm): 100%; pest or weed control at 600 ppm (carmine spider mite; 600 ppm, mortality after 72 hrs): 100%; pest or weed control at 600 ppm (Diamond back moth; 600 ppm, mortality after 72 hrs, read-out: control (test results against diamond back moth)): 80 to 99%; pest or weed control at 100 ppm ([1]; 100 ppm, death rate after 48 hrs): 100%; pest or weed control at 600 ppm ([1]; 600 ppm, death rate after 48 hrs): 100%; pest or weed control at 0.4 µg/mL (wheat powdery mildew; read-out: control effect against wheat powdery mildew (%), 0.4 mg/L, protectant activity): 25%; pest or weed control at 1.6 µg/mL (wheat powdery mildew; read-out: control effect against wheat powdery mildew (%), 1.6 mg/L, protectant activity): 80%; pest or weed control at 6.25 ppm (wheat powdery mildew; read-out: protectant activity against wheat powdery mildew in vivo, 6.25 ppm): 80 to 99%; pest or weed control at 25 ppm (wheat powdery mildew; read-out: protectant activity against wheat powdery mildew in vivo, 25 ppm): 100%; pest or weed control at 100 ppm (wheat powdery mildew; read-out: protectant activity against wheat powdery mildew in vivo, 100 ppm): 100%; pest or weed control at 400 ppm (wheat powdery mildew; read-out: protectant activity against wheat powdery mildew in vivo, 400 ppm): 100%; pest or weed control at 600 ppm (armyworm; 600 ppm, mortality after 72 h): 80 to 99%
COC(=O)c1nc(Cl)nc(NC(C)c2ccc(Oc3ncc(C(F)(F)F)cc3Cl)cc2)c1Cl (stereo not shown) [CK34, reference compound] | 85 | 0 | 0 | 0 | 0 | 65 | 0 | 0 | – | – | – | – | – | – | – | –
Cc1nc(Cl)cc(NCCc2ccc(Oc3ncc(C(F)(F)F)cc3Cl)cc2)n1 [CK68, reference compound] | 0 | 0 | 4 | 0 | 14 | 0 | 0 | 0 | – | – | – | – | – | – | – | –
Cc1nc(Cl)cc(NCCc2ccc(Oc3ccc(C#N)cn3)cc2)n1 [CK84, reference compound] | 100 | 100 | 100 | 0 | 0 | 100 | – | 0 | 0 | 60 | 90 | – | – | – | 7 | pest or weed control at 25 µg/mL (cucumber downy mildew): 85%; pest or weed control at 50 µg/mL (cucumber downy mildew): 100%; pest or weed control at 100 µg/mL (cucumber downy mildew): 100%; pest or weed control at 10 µg/mL (carmine spider mite): 0%; pest or weed control at 100 µg/mL (carmine spider mite): 0%; pest or weed control at 100 µg/mL [1]: 43%
